Data on three molecules can be found in patent US10047049B2, “Process for preparing pridopidine” (priority 2015, dated 2018).

Converted amounts (≈) assume the structure as drawn.

The format of series [1] is physicochemical. The text has this: The purity profile of the isolated Compound 9 was better when performing the crystallization from water (Batch 2602 and Batch 2603; both had purities over 99.5%) compared to both crystallization from water/MTBE mixture (purity of 98.5%) and pure MTBE (Batch 2601; purity was 98.5%). The major improvement is removal of early eluting/polar impurities. The yield of the present method may be slightly lower because there will be a small loss of material in the mother liquor. Estimated solubility of Compound 9 in the mother liquor at 5-20° C. is 0.8-0.9% (Batch 2602 and Batch 2603). In the current method this would correspond to 4-5% of the material being lost. This is considered an acceptable loss because of the improved purity of Compound 9.

For series [2] the following is noted: cited from earlier work.

As to `CCCN1CCC(O)(c2cccc(SC)c2)CC1` [Compound 9, 4-(3-(methylthio)phenyl)-1-propylpiperidin-4-ol], in series [1], the “Estimated solubility in the mother liquor” value is reported as 0.8-0.9%.

For `CSc1ccccc1` [TA, thioanisole], the “solubility (water)” value in series [2] was 500 µg/mL (≈ 4.03 mM). For the molecule `CCCCCCBr` [hexyl bromide], the “solubility in water” value in series [2] is “insoluble in water”.
